ChEMBL document CHEMBL3885861, “Open TG-GATES”

Species on record: Rattus norvegicus
Assay: Open TG-GATES - Regimen: Single
Format: toxicity, organism-based, Sprague-Dawley
Set-up: regimen Single, gender Male, age 6 weeks
Details: in vivo, po, 0 mg/kg, route gavage, dose level Control; for APTT / Bas / Eos / Fbg / Hb / Ht / Lym / MCH / MCHC / MCV / Mono / Neu / PT / Plat / RBC / Ret / WBC: tissue Blood; for KIDNEY_L / KIDNEY_R / KIDNEY_TOTAL: tissue Kidney; for LIVER: tissue Liver; for A/G / ALP / ALT / AST / BUN / CRE / Ca / Cl / DBIL / GLC / IP / K / LDH / Na / PL / RALB / TBIL / TC / TG / TP / gamma-GTP: tissue Plasma

CN/C(=N/CCSCc1nc[nH]c1C)NC#N [CIMETIDINE]
TERMINAL_BW (3 h): 213.9 g | APTT (3 h): 18.4 s | Bas (3 h): 0% | Eos (3 h): 1% | Fbg (3 h): 217.6 mg/dL | Hb (3 h): 12.7 g/dL | Ht (3 h): 37.4% | Lym (3 h): 75.4% | MCH (3 h): 21.3 pg | MCHC (3 h): 34% | MCV (3 h): 62.5 fL | Mono (3 h): 3.2% | Neu (3 h): 19.2% | PT (3 h): 12.6 s | Plat (3 h): 139.7 x10_4/uL | RBC (3 h): 598.4 x10_4/ul | Ret (3 h): 7.9% | WBC (3 h): 95.7 x10_2/uL | KIDNEY_L (3 h): 1 g | KIDNEY_R (3 h): 1 g | KIDNEY_TOTAL (3 h): 2 g | LIVER (3 h): 10.1 g | A/G (3 h): 1.7 | ALP (3 h): 1080.4 IU/L | ALT (3 h): 37.4 IU/L | AST (3 h): 71.2 IU/L | BUN (3 h): 12.4 mg/dL | CRE (3 h): 0.3 mg/dL | Ca (3 h): 10.8 mg/dL | Cl (3 h): 102.6 meq/L | DBIL (3 h): 0.072 mg/dL | GLC (3 h): 189 mg/dL | IP (3 h): 8.8 mg/dL | K (3 h): 3.7 meq/L | LDH (3 h): 134.2 IU/L | Na (3 h): 140.8 meq/L | PL (3 h): 147.6 mg/dL | RALB (3 h): 3.4 g/dL | TBIL (3 h): 0.1 mg/dL | TC (3 h): 77.2 mg/dL | TG (3 h): 65 mg/dL | TP (3 h): 5.4 g/dL | gamma-GTP (3 h): 1.4 IU/L | TERMINAL_BW (6 h): 211.8 g | APTT (6 h): 19.8 s | Bas (6 h): 0% | Eos (6 h): 1% | Fbg (6 h): 219.2 mg/dL | Hb (6 h): 13.2 g/dL | Ht (6 h): 37.8% | Lym (6 h): 75.6% | MCH (6 h): 21.6 pg | MCHC (6 h): 34.7% | MCV (6 h): 62.2 fL | Mono (6 h): 3.4% | Neu (6 h): 18.8% | PT (6 h): 12.8 s | Plat (6 h): 127.2 x10_4/uL | RBC (6 h): 607.6 x10_4/ul | Ret (6 h): 8% | WBC (6 h): 107.6 x10_2/uL | KIDNEY_L (6 h): 1 g | KIDNEY_R (6 h): 1 g | KIDNEY_TOTAL (6 h): 1.9 g | LIVER (6 h): 9.5 g | A/G (6 h): 1.5 | ALP (6 h): 902.6 IU/L | ALT (6 h): 38 IU/L | AST (6 h): 70.2 IU/L | BUN (6 h): 10.2 mg/dL | CRE (6 h): 0.4 mg/dL | Ca (6 h): 10.7 mg/dL | Cl (6 h): 101.6 meq/L | DBIL (6 h): 0.074 mg/dL | GLC (6 h): 195.4 mg/dL | IP (6 h): 9.7 mg/dL | K (6 h): 3.8 meq/L | LDH (6 h): 161.6 IU/L | Na (6 h): 140.6 meq/L | PL (6 h): 151.2 mg/dL | RALB (6 h): 3.3 g/dL | TBIL (6 h): 0.1 mg/dL | TC (6 h): 81.8 mg/dL | TG (6 h): 64.4 mg/dL | TP (6 h): 5.5 g/dL | gamma-GTP (6 h): 1.4 IU/L | TERMINAL_BW (9 h): 206.6 g | APTT (9 h): 17.6 s | Bas (9 h): 0% | Eos (9 h): 1% | Fbg (9 h): 222.6 mg/dL | Hb (9 h): 13.1 g/dL | Ht (9 h): 37.9% | Lym (9 h): 75.6% | MCH (9 h): 21.5 pg | MCHC (9 h): 34.6% | MCV (9 h): 62 fL | Mono (9 h): 3% | Neu (9 h): 19.2% | PT (9 h): 12.8 s | Plat (9 h): 128 x10_4/uL | RBC (9 h): 612 x10_4/ul | Ret (9 h): 7.6% | WBC (9 h): 93 x10_2/uL | KIDNEY_L (9 h): 0.9 g | KIDNEY_R (9 h): 0.9 g | KIDNEY_TOTAL (9 h): 1.8 g | LIVER (9 h): 8.7 g | A/G (9 h): 1.6 | ALP (9 h): 842 IU/L | ALT (9 h): 30 IU/L | AST (9 h): 66.2 IU/L | BUN (9 h): 12.6 mg/dL | CRE (9 h): 0.3 mg/dL | Ca (9 h): 10.5 mg/dL | Cl (9 h): 102.2 meq/L | DBIL (9 h): 0.074 mg/dL | GLC (9 h): 189.2 mg/dL | IP (9 h): 10 mg/dL | K (9 h): 3.8 meq/L | LDH (9 h): 120.4 IU/L | Na (9 h): 140.8 meq/L | PL (9 h): 139 mg/dL | RALB (9 h): 3.3 g/dL | TBIL (9 h): 0.1 mg/dL | TC (9 h): 77.4 mg/dL | TG (9 h): 47.8 mg/dL | TP (9 h): 5.4 g/dL | gamma-GTP (9 h): 1.4 IU/L | TERMINAL_BW (24 h): 224.9 g | APTT (24 h): 18.8 s | Bas (24 h): 0.2% | Eos (24 h): 0.8% | Fbg (24 h): 218.6 mg/dL | Hb (24 h): 13.5 g/dL | Ht (24 h): 40% | Lym (24 h): 81.4% | MCH (24 h): 21.6 pg | MCHC (24 h): 33.8% | MCV (24 h): 63.8 fL | Mono (24 h): 3% | Neu (24 h): 13.2% | PT (24 h): 12.1 s | Plat (24 h): 130.4 x10_4/uL | RBC (24 h): 627.6 x10_4/ul | Ret (24 h): 7.2% | WBC (24 h): 98.2 x10_2/uL | KIDNEY_L (24 h): 1 g | KIDNEY_R (24 h): 1 g | KIDNEY_TOTAL (24 h): 2 g | LIVER (24 h): 11 g | A/G (24 h): 1.6 | ALP (24 h): 959.8 IU/L | ALT (24 h): 36.8 IU/L | AST (24 h): 64 IU/L | BUN (24 h): 15.6 mg/dL | CRE (24 h): 0.4 mg/dL | Ca (24 h): 10.9 mg/dL | Cl (24 h): 101.6 meq/L | DBIL (24 h): 0.1 mg/dL | GLC (24 h): 223.8 mg/dL | IP (24 h): 7.7 mg/dL | K (24 h): 4 meq/L | LDH (24 h): 147.6 IU/L | Na (24 h): 140.2 meq/L | PL (24 h): 158.6 mg/dL | RALB (24 h): 3.5 g/dL | TBIL (24 h): 0.2 mg/dL | TC (24 h): 79.8 mg/dL | TG (24 h): 118.8 mg/dL | TP (24 h): 5.6 g/dL | gamma-GTP (24 h): 1.8 IU/L
